Measured values from PMC11348465, “Pharmacochemical Study of Multitarget Amino Acids’ Hybrids: Design, Synthesis, In vitro, and In silico Studies” (Medicinal Chemistry (Shariqah (United Arab Emirates), 2024).
Where two headings read alike, the source gives them in different places.

Tests used:
ovine COX-2 = molecular target: T1, ovine COX-2 (Ovis aries, UniProt P79208); experiment: Cyclooxygenase-2 inhibition study; assay type: biochemical; conditions: for COX-2 inhibition (%): % inhibition at 100 µM
T1 construct: purchased Cayman (USA)
T1 sequence (P79208 17-603): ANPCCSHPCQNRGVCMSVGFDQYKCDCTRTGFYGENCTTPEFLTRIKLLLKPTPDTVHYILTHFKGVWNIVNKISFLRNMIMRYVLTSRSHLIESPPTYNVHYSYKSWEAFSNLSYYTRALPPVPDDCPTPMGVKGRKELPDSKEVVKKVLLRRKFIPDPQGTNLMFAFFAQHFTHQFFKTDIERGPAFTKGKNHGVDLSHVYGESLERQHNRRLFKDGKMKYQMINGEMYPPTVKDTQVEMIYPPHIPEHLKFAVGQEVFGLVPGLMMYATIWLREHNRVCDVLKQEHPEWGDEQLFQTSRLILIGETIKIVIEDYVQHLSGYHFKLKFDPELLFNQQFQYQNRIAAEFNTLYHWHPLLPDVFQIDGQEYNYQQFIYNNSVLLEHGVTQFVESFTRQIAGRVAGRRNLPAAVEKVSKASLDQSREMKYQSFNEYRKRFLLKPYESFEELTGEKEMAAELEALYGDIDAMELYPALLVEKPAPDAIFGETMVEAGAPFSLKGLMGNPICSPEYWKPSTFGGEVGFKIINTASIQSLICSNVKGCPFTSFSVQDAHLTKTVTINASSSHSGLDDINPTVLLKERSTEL
Procedure: The in vitro study of cyclooxygenase (COX) activity was determined by using arachidonic acid (AA) as the substrate and N,N,N’,N’-tetramethylphenylenediamine (TMPD) as the co-substrate. […] The absorption due to the spontaneous oxidation of TMPD was subtracted from the initial rate of oxidation observed in the presence of AA. […] A blank determination was used first to serve as a negative control. Indomethacin was used as a reference COX-2 inhibitor (positive control).
The role of COX-2 in neurodegenerative diseases has been reported, and COX-2 inhibition is considered of high importance as a therapeutic tool. The designed derivatives were tested for their COX-2 inhibition activity on the ovine COX-2 enzyme. […] Indomethacin was used as a reference compound.

[1] = cited from earlier work
[2] = molecular target: T2, soybean lipoxygenase (LOX-1) (Glycine max, UniProt P08170); experiment: Soybean lipoxygenase inhibition study; assay type: biochemical; conditions: for inhibition at 100 µM: read-out: LOX inhibition (%); for LOX inhibition (%): % inhibition at 100 µM
T2 construct: purchased Sigma Chemical, Co. (St Louis, MO, USA)
T2 sequence (P08170 1-839): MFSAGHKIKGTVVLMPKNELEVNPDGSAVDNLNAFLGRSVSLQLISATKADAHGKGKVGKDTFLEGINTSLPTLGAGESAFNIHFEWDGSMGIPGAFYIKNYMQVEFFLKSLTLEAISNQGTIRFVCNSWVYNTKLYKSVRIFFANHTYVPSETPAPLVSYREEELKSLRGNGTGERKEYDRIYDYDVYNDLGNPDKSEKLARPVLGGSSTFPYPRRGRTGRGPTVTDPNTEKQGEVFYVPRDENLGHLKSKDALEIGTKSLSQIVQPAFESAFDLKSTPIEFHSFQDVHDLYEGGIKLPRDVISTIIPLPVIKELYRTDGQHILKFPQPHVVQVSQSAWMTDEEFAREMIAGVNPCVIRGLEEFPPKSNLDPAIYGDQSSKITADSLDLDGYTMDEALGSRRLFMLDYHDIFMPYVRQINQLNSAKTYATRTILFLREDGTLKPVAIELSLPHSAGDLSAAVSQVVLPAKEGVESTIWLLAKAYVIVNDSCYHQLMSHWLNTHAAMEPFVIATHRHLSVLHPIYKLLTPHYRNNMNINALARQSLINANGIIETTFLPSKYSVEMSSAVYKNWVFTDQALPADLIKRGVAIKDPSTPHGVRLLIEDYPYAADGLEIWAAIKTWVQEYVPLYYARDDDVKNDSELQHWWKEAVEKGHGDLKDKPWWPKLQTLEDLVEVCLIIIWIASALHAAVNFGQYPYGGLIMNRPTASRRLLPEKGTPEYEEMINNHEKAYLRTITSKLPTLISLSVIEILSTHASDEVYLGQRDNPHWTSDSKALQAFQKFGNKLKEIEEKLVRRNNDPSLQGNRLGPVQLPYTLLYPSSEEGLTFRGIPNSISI
Procedure: Our group evaluated an in vitro study as reported previously. The tested hybrids were incubated at room temperature with sodium linoleate (100 µM) and 200 µL of enzyme solution (1/9 X 10^-4 w/v in saline). […] Different concentrations were used for the determination of IC50. A blank determination was used as a negative control.
Due to the limited work on sufficiently purified human ALOX-5 isoenzyme, most of the published research was performed on the soybean homolog. […] This study used the soybean isoenzyme LOX-1, which exerts maximal activity at pH 9.0 [72].

[3] = Inhibition of linoleic acid peroxidation (AAPH-induced)
Procedure: Our group evaluated the in vitro study as reported previously. Ten 16 mM sodium linoleate solution microliters were added to the UV cuvette containing 93 µL of a 0.05 M phosphate buffer, pH 7.4, and 10 µL of the tested compounds (final concentration 100 µM). The oxidation reaction started at 37 °C under air by adding 50 µL of the free radical initiator AAPH (40 mM). Oxidation was carried out and monitored at 234 nm. DMSO under the same conditions was used as a negative control. Trolox was used as the appropriate standard (positive control). The results are given in Table S1 in the supplementary material.
We used the water-soluble 2, 2’-azobis(2-amidinopropane) hydrochloride (AAPH) to generate in vitro peroxyl radicals through spontaneous thermal decomposition, which resembles cellular lipid peroxidation due to the activity of the undertaken radicals. The anti-lipid peroxidation activities were compared to a well-known antioxidant, i.e., Trolox (Table S1 in the supplementary material). […] In general, the anti-lipid peroxidation ranged from 8-99%. Except for acids 11, 12, 17, 19, 21, 22, 24, 25, and 28, which present high antioxidant activities (on the high % level), the other cinnamic acids present low or medium activity.

albumin = experiment: Albumin denaturation studies
Procedure: The synthesized compounds were evaluated for the inhibition of albumin denaturation. Test tubes containing 1 mL of albumin solution (1% w/v in phosphate buffer pH=7.4), buffer, and 20 μL of the tested compounds dissolved in DMSO are incubated at 37°C for 15 minutes (final concentration 100 µM). The incubation follows at 60°C for another 15 minutes to induce albumin denaturation. The samples are cooled to room temperature. Their absorbance was measured at 660 nm. DMSO was used as a blank solution and acetylsalicylic acid as a reference compound. The results are given in Table S1 in the supplementary material.
Protein denaturation has correlated well with the inflammatory response, leading to various inflammatory diseases. It is known that tissue injury during life might refer to the denaturation of cells' protein constituents or intercellular substances. […] Many anti-inflammatory drugs can inhibit the heat-coagulation of serum albumin [78]. Thus, the inhibition of albumin heat-coagulation activity of the designed molecules was examined in vitro [60] as a measure of their anti-inflammatory activity. The experimental results were compared to the standard drug, acetylsalicylic acid. […] The results are given in Table S1 in the supplementary material.

[4] = read-out: LOX inhibition (IC50)
[5] = read-out: COX-2 inhibition (IC50)

O=C(O)/C=C/c1cccc(Oc2ccccc2)c1 [Compound 12]
inhibition at 100 µM (ovine COX-2): 39%
AAPH inhibition (%, at 100 µM) [1]: 84%

N#Cc1ccc(/C=C/C(=O)O)cc1 [Compound 26]
inhibition at 100 µM [2]: 27%
IC50 (ovine COX-2): 65 µM
AAPH inhibition (%, at 100 µM) [1]: 20%

CCOC(=O)CNC(=O)/C=C/c1ccc2c(c1)OC(C)(C)O2 [Compound 29a]
AAPH inhibition (%, at 100 µM) [3]: 80%
COX-2 inhibition (%) (ovine COX-2): 38%
Albumin denaturation (%, at 100 µM) (albumin): 25%

COC(=O)CC[C@H](NC(=O)/C=C/c1ccc(OC(C)=O)cc1)C(=O)OC [Compound 30c]
AAPH inhibition (%, at 100 µM) [3]: 16%
IC50 [2, 4]: 100 µM
COX-2 inhibition (%) (ovine COX-2): 6%

O=C(O)/C=C/c1ccccc1 [Compound 22, cinnamic acid]
inhibition at 100 µM (ovine COX-2): 4%
AAPH inhibition (%, at 100 µM) [1]: 78%

COC(=O)CC[C@H](NC(=O)/C=C/c1cccc2ccccc12)C(=O)OC [Compound 17c]
AAPH inhibition (%, at 100 µM) [3]: 57%
IC50 [2, 4]: 68 µM
IC50 (ovine COX-2; [5]): 62 µM

COc1ccc(OC)c(/C=C/C(=O)O)c1 [Compound 19]
AAPH inhibition (%, at 100 µM) [3]: 88%
IC50 [2, 4]: 60 µM
inhibition at 100 µM (ovine COX-2): 28%

COC(=O)CC[C@H](NC(=O)/C=C/c1ccc(F)cc1)C(=O)OC [Compound 27c]
AAPH inhibition (%, at 100 µM) [3]: 10%
LOX inhibition (%) [2]: 8%
IC50 (ovine COX-2; [5]): 72.5 µM

COc1ccc(/C=C/C(=O)O)cc1OC [Compound 18]
inhibition at 100 µM (ovine COX-2): 19%
AAPH inhibition (%, at 100 µM) [1]: 86%

O=C(O)/C=C/c1cccs1 [Compound 21]
AAPH inhibition (%, at 100 µM) [1]: 60%

CCOC(=O)CNC(=O)/C=C/c1ccc(O)c(O)c1 [Compound 28a]
AAPH inhibition (%, at 100 µM) [3]: 47%
IC50 [2, 4]: 70 µM
inhibition at 100 µM (ovine COX-2): 17%

CC(=O)Oc1ccccc1C(=O)O [Aspirin, acetylsalicylic acid, reference compound]
Albumin denaturation (%, at 100 µM) (albumin): 31.2%

CCOC(=O)CNC(=O)/C=C/c1cccs1 [Compound 21a]
AAPH inhibition (%, at 100 µM) [3]: 15%
LOX inhibition (%) [2]: 20%
IC50 (ovine COX-2; [5]): 55 µM

COC(=O)CCC(NC(=O)C=Cc1ccc(O)c(O)c1)C(=O)OC (centres unmarked) [Compound 28c]
AAPH inhibition (%, at 100 µM) [3]: 87%
IC50 [2, 4]: 8.5 µM
inhibition at 100 µM (ovine COX-2): 19%
Albumin denaturation (%, at 100 µM) (albumin): 31%

O=C(O)/C=C/c1ccc(OCc2ccc(Br)cc2)cc1 [Compound 11]
IC50 [2]: 100 µM
inhibition at 100 µM (ovine COX-2): 17%
AAPH inhibition (%, at 100 µM) [1]: 84%

O=C(O)/C=C/c1ccc(O)cc1 [Compound 25, p-coumaric acid]
AAPH inhibition (%, at 100 µM) [3]: 76%
IC50 [2]: 10 µM
IC50 (ovine COX-2; [5]): 62 µM

COC(=O)CCCNC(=O)/C=C/c1cccs1 [Compound 21b]
AAPH inhibition (%, at 100 µM) [3]: 73%
LOX inhibition (%) [2]: 0%
COX-2 inhibition (%) (ovine COX-2): 38%

COC(=O)CC[C@H](NC(=O)/C=C/c1ccc(O)c(OC)c1)C(=O)OC [Compound 24c]
AAPH inhibition (%, at 100 µM) [3]: 12%
IC50 [2, 4]: 75 µM
COX-2 inhibition (%) (ovine COX-2): 9%

CCOC(=O)CNC(=O)/C=C/c1ccc(OC)c(OC)c1 [Compound 18a]
AAPH inhibition (%, at 100 µM) [3]: 99%
IC50 [2, 4]: 62.5 µM
COX-2 inhibition (%) (ovine COX-2): 14%

COC(=O)CC[C@H](NC(=O)/C=C/c1ccc2c(c1)OC(C)(C)O2)C(=O)OC [Compound 29c]
AAPH inhibition (%, at 100 µM) [3]: 27%
Albumin denaturation (%, at 100 µM) (albumin): 75%

COC(=O)CCCNC(=O)/C=C/c1ccc(O)c(O)c1 [Compound 28b]
AAPH inhibition (%, at 100 µM) [3]: 58%
IC50 (ovine COX-2; [5]): 100 µM
Albumin denaturation (%, at 100 µM) (albumin): 44%

COC(=O)CCCNC(=O)/C=C/c1ccc(O)c(OC)c1 [Compound 24b]
AAPH inhibition (%, at 100 µM) [3]: 34%
IC50 [2, 4]: 100 µM

CCOC(=O)CNC(=O)/C=C/c1ccc2c(c1)OCO2 [Compound 20a]
AAPH inhibition (%, at 100 µM) [3]: 70%
LOX inhibition (%) [2]: 6%
IC50 (ovine COX-2; [5]): 75 µM

CCOC(=O)CNC(=O)/C=C/c1cccc(Br)c1 [Compound 15a]
AAPH inhibition (%, at 100 µM) [3]: 26%
IC50 [2, 4]: 57.5 µM

CCOC(=O)CNC(=O)/C=C/c1ccccc1 [Compound 22a]
AAPH inhibition (%, at 100 µM) [3]: 5%
LOX inhibition (%) [2]: 0%
IC50 (ovine COX-2; [5]): 5 µM

COC(=O)CCCNC(=O)/C=C/c1ccc(OCc2ccc(Br)cc2)cc1 [Compound 11b]
AAPH inhibition (%, at 100 µM) [3]: 19%
LOX inhibition (%) [2]: 30%

O=C(O)/C=C/c1ccc(C(F)(F)F)cc1 [Compound 13]
AAPH inhibition (%, at 100 µM) [3]: 37%
inhibition at 100 µM [2]: 42%
inhibition at 100 µM (ovine COX-2): 32%

COC(=O)CC[C@H](NC(=O)/C=C/c1ccccc1)C(=O)OC [Compound 22c]
AAPH inhibition (%, at 100 µM) [3]: 39%
LOX inhibition (%) [2]: 10%

COC(=O)CC[C@H](NC(=O)/C=C/C=C/c1ccccc1)C(=O)OC [Compound 23c]
AAPH inhibition (%, at 100 µM) [3]: 25%
IC50 [2, 4]: 75 µM
COX-2 inhibition (%) (ovine COX-2): 47%

COC(=O)CC[C@H](NC(=O)/C=C/c1cccc(Oc2ccccc2)c1)C(=O)OC [Compound 12c]
AAPH inhibition (%, at 100 µM) [3]: 65%
IC50 [2, 4]: 60 µM

CCOC(=O)CNC(=O)/C=C/c1ccc(C(F)(F)F)cc1 [Compound 13a]
AAPH inhibition (%, at 100 µM) [3]: 8%
LOX inhibition (%) [2]: 31%

CCOC(=O)CNC(=O)/C=C/c1cccc(Oc2ccccc2)c1 [Compound 12a]
AAPH inhibition (%, at 100 µM) [3]: 48%
LOX inhibition (%) [2]: 36%
IC50 (ovine COX-2; [5]): 55 µM
